Test results published in publication PMC6864482, “Novel C7-Substituted Coumarins as Selective Monoamine Oxidase Inhibitors: Discovery, Synthesis and Theoretical Simulation” (Molecules, 2019).

Key:
hMAO-A = molecular target: T1, hMAO-A (Homo sapiens, UniProt P21397); conditions: previously identified BRS-3D hits, cited from earlier work
T1 sequence (P21397 1-527): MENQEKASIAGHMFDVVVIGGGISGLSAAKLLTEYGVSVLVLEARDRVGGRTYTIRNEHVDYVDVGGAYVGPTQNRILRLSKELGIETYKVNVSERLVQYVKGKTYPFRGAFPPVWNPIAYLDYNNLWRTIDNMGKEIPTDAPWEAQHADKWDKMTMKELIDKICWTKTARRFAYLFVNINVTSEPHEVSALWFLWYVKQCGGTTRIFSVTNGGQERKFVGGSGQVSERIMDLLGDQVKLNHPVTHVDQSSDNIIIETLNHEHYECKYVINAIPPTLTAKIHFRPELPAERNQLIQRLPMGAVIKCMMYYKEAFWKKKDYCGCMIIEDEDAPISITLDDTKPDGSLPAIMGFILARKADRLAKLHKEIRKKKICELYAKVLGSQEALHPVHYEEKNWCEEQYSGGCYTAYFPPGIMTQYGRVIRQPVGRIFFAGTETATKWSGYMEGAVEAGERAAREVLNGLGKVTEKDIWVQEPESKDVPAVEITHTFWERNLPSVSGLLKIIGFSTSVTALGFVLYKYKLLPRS

hMAO-B = molecular target: T2, hMAO-B (Homo sapiens, UniProt P27338); conditions: previously identified BRS-3D hits, cited from earlier work
T2 sequence (P27338 1-520): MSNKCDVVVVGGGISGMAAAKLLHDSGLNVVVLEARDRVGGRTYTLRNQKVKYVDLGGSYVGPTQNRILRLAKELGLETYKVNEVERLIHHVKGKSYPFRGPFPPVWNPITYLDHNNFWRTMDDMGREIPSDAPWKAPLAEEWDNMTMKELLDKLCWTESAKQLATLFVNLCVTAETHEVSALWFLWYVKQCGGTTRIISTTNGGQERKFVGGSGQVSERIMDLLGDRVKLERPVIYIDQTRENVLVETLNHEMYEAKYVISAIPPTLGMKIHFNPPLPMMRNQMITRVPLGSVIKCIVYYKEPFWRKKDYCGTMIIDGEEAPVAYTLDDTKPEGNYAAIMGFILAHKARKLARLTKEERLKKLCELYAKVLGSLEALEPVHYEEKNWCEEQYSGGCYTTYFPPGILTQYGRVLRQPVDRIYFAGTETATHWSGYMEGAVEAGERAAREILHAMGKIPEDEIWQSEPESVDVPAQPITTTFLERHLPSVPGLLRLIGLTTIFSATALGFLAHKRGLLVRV

[1] = pIC50 = −log(IC50), listed as M43 (7a)

melting point: 124 to 125 °C
SMILES: Cc1cc(=O)oc2cc(Oc3nnc(-c4ccccc4)s3)ccc12 [M43, 4-Methyl-7-((5-phenyl-1,3,4-thiadiazol-2-yl)oxy)-2H-chromen-2-one]
MAO-A pIC50 (hMAO-A; [1]): 6.8
IC50 (hMAO-A; read-out: MAO-A IC50): 160 nM
MAO-B Avg. Inh% at 10 uM (hMAO-B; 10 μM): 96%
MAO-B pIC50 (hMAO-B; [1]): 6.4
IC50 (hMAO-B; read-out: MAO-B IC50): 360 nM
